Laboratory results reported in US20110136791A1, “COMBINATION OF A NICOTINIC RECEPTOR PARTIAL AGONIST AND OF AN ACETYLCHOLINESTERASE INHIBITOR, PHARMACEUTICAL COMPOSITION CONTAINING SAME AND USE THEREOF IN THE TREATMENT OF COGNITIVE DISORDERS” (priority 2008, published 2011).

Legend:
rats with no deficit = assay: Test for spontaneous forgetting in rats with no deficit (object recognition test, visual episodic memory); type: in vivo; settings: rat; for Exploration time, familiar object (recalling session) / Exploration time, new object (recalling session) / Recognition index (new/(new + familiar)): p.o. 60 min before each session, 24 h forgetting period, group 2: 0.1 mg/kg, group 3: rivastigmine 0.03 mg/kg, group 4: 0.01 + 0.03 mg/kg; for Exploration time, familiar object (recalling session) / Exploration time, new object (recalling session): 3 min test; for Discrimination between the familiar object and the new object during the recalling session (in words): p.o., inactive doses, 24 hours after the learning session
Description: 1. Test for Spontaneous Forgetting in Rats with No Deficit
1.) Accustomization phase: In this protocol, the animals are first subjected to a session of accustomization to the environmental context (a wooden chamber of 65×45×45 cm) for a period of 2 minutes. The time spent in active locomotion is measured using a timer. 2.) Learning phase: 24 hours later, two exactly identical objects (either metal triangles or pyramids made of Lego) are placed in the experimental device. Each rat is placed in the middle of the chamber, the nose against the wall opposite that where the objects/stimulus are located. The pairs of objects presented are alternated equitably in each of the groups of rats. The animals are left in the experimental chamber until they reach a period of exploration of the two objects equal to 20 seconds, out of a maximum period of 3 minutes. As soon as the 20 seconds of exploration are reached, the rat is put back in its housing cage. […] 3.) Recalling session: The recalling session takes place after a forgetting period of 24 h for all the groups. The rats are confronted with a pair of objects consisting of the object encountered during the learning phase and an unknown object. The rats are placed in the same way as for the learning session.
This test lasts 3 minutes, during which the time spent exploring each of the 2 objects is measured.
Conversely, if the animal has forgotten the familiar object, the times spent exploring the new object and the familiar object will be similar.
For the learning and recalling sessions, the exploring of an object is counted if the animal orients its nose toward the object, inside a perimeter of 2 centimeters around said object, or if it touches it with its nose or with its feet. If the rat moves around the object or sits on it, these behaviors are not considered to be exploratory.
(§1) The raw data are expressed in seconds.
The test compounds are administered orally 60 minutes (rat study) before each of the three sessions of the protocol.
Four experimental groups are formed, said groups receiving, respectively:
During the recalling session, 24 hours after the learning session, the times spent exploring the two objects, expressed in seconds, and the recognition index (time spent exploring the new object/total time spent exploring the new and familiar objects) are measured. • Similar exploration times with respect to the familiar object and to the new object reflect the fact that the familiar object has been forgotten, and therefore that there is a visual episodic memory deficit.
Conversely, a longer exploration time for the new object than for the familiar object reflects significant recollection of the familiar object and therefore an improvement in visual episodic memory. • A relatively low recognition index reflects the fact that the familiar object has been forgotten, and therefore that there is a visual episodic memory deficit.
Conversely, a high recognition index reflects significant recollection of the familiar object, and therefore an improvement in visual episodic memory.
The above doses are expressed in base equivalent.

[1] = tested on: CD1-strain mice injected ICV with Aβ25-35 peptide; assay: Test of short-term visual episodic memory deficit induced by ICV injections of β-amyloid protein 25-35 in mice (object recognition); type: in vivo, mouse; settings: Aβ25-35 mice; for Effect on short-term recall performance levels (in words): 0.1 mg/kg each, intraperitoneally; for Exploration time, familiar object (recalling session) / Exploration time, new object (recalling session) / Recognition index (new/(new + familiar)): intraperitoneally 60 min before each session, 1 hour forgetting period, each active 0.1 mg/kg (base equivalent); for Exploration time, familiar object (recalling session) / Exploration time, new object (recalling session): 5 min test
Description: 2. Test of short-term visual episodic memory deficit induced by intracerebroventricular (ICV) injections of β-amyloid protein 25-35 in mice
The Aβ25-35 peptide fragment contains the 11 amino acids necessary and sufficient for inducing neurological toxicity.
The Aβ25-35 amyloid peptide is dissolved in distilled water at a final concentration of 3 mg/ml. It is then incubated at 37° C. for 4 days in order to form aggregates of toxic peptide. The control animals receive the scrambled peptide, consisting of the same amino acids, but organized according to a random sequence.
The peptide is injected intracerebroventricularly into CD1-strain mice anaesthetized with isoflurane. A microsyringe fitted with a 28-gauge needle 3 mm long is used. The needle is inserted unilaterally, 1 mm to the right of the central line equidistant from each eye and at an equal distance between the axis of the eyes and the axis of the ears. 3 μl of the aggregated peptide are injected over a period of one minute. The mice are used for the behavioral tests between 6 and 14 days after the intracerebral injection.
1.) Accustomization phase: In this protocol, the mice are first subjected to a session of accustomization to the environmental context (light grey PVC chain of 52×52×40 cm, illumination at 6 Lux) for a period of 10 minutes. The time spent in active locomotion is measured using a timer. 2.) Learning phase: 24 hours later, two exactly identical objects (either metal triangles (5.5×3.3 cm), or a square red Lego brick (3.0×3.0×3.0 cm)) are placed in the experimental device. Each mouse is placed in the middle of the chamber, the nose against the wall opposite that where the objects/stimulus are located. The pairs of objects presented are alternated equitably in each of the groups of mice. The animals are left in the experimental chamber until they reach a time spent exploring the two objects equal to 10 seconds, out of a maximum period of 3 minutes. As soon as the 10 seconds of exploration are reached, the mouse is put back in its housing cage.
3.) Recalling session: The recalling session takes place after a forgetting period of 1 hour for all the groups. […] The mice are confronted with a pair of objects consisting of the object encountered during the learning phase and an unknown object. The mice are placed in the chamber in the same way as for the learning session.
This test lasts 5 minutes, during which the time spent exploring each of the 2 objects is measured.
For the learning and recalling sessions, the exploration of an object is counted if the animal orients its nose toward the object, inside a perimeter of 2 cm around said object, or if it touches it with its nose or its feet. If the rat moves around the object or sits on it, these behaviors are not considered to be exploratory.
as §1
The compounds to be tested are administered intraperitoneally, 60 minutes before each of the three sessions of the protocol.
Five experimental groups were formed, receiving, respectively:
During the recalling session, i.e. 1 hour after the learning session, the times spent exploring the two objects, expressed in seconds, are measured. • Similar exploration times with respect to the familiar object and to the new object reflect the fact that the familiar object has been forgotten, and therefore that there is complete abolition of the short-term recall performance levels. • Conversely, a longer exploration time for the new object compared with the familiar object reflects a good short-term memory recall performance level.

## O=C(O)/C=C/C(=O)O.O=C(Oc1ccc(Br)cc1)N1CCN2CCC1CC2 [4-bromophenyl 1,4-diazabicyclo[3.2.2]nonane-4-carboxylate (2E)-but-2-enedioate]
Rats with no deficit
  Exploration time, familiar object (recalling session): 10.47 ± 0.84 s
  Exploration time, new object (recalling session): 11.10 ± 1.44 s
  Recognition index (new/(new + familiar)): 0.50 ± 0.04
  Discrimination between the familiar object and the new object during the recalling session (in words): no significant discrimination between the familiar object and the new object
[1]
  Effect on short-term recall performance levels (in words): do not result in an improvement in performance levels
  Exploration time, familiar object (recalling session): 4.30 ± 0.70 s
  Exploration time, new object (recalling session): 6.30 ± 0.60 s
  Recognition index (new/(new + familiar)): 0.60 ± 0.04

## COc1cc2c(cc1OC)C(=O)C(CC1CCN(Cc3ccccc3)CC1)C2 (stereo not shown) [donepezil]
[1]
  Effect on short-term recall performance levels (in words): do not result in an improvement in performance levels
  Exploration time, familiar object (recalling session): 4.60 ± 0.70 s
  Exploration time, new object (recalling session): 5.00 ± 0.80 s
  Recognition index (new/(new + familiar)): 0.52 ± 0.05

## CCN(C)C(=O)Oc1cccc([C@H](C)N(C)C)c1 [rivastigmine]
Rats with no deficit
  Exploration time, familiar object (recalling session): 10.10 ± 1.56 s
  Exploration time, new object (recalling session): 9.42 ± 1.86 s
  Recognition index (new/(new + familiar)): 0.48 ± 0.05
  Discrimination between the familiar object and the new object during the recalling session (in words): no significant discrimination between the familiar object and the new object
